Data reported in patent US9062038B2, “Heteroaryls and uses thereof” (Millennium Pharmaceuticals, Inc., priority 2010, dated 2015).

How the values were obtained:
PI3Kalpha = biological target: T1, PI3Kalpha (Homo sapiens, UniProt P42336); assay: Human PI3Kα enzyme assay (HTRF); format: biochemical
T1 construct: His (N); host or cells: SF9 insect cells (baculovirus)
Source text: (§1) The catalytic subunits of PI3Ks are cloned into either pDEST8(p110 alpha) or pDEST10(p110beta, p110delta, and p110gamma) as N-terminal His tagged fusion proteins using the Gateway system (Invitrogen, catalog#11804-010 for pDEST8 and 11806-015 for pDEST10). The sequences are verified before recombinant protein expression using the Baculovirus Expression System with Gateway® Technology. The accession numbers for the subunits are as follows: • p110 alpha (GB: U79143) • p110beta (GB: S67334) • p110delta (GB: U86453) • p110gamma (GB: X83368)
(§2) The regulatory subunits of PI3Ks are cloned into pDEST8 as un-tagged protein using the Gateway system (Catalog#11804-010). […]
(§3) 0.5 uL compounds in DMSO are added to wells of a 384 well microtitre plate (Corning 3575). […] Then 5 ul PI3K stop mix (50 mM Hepes, 5 mM DTT, 150 mM NaCl, 0.01% Tween-20, 15 mM EDTA and 25 nM biotin-PI(3,4,5)P3 (Echelon) is added to quench the reaction followed immediately by addition of 5 ul HTRF detection mix (50 mM Hepes, 5 mM DTT, 150 mM NaCl, 0.01% Tween-20, 40 mM KF, 10 nM GST:GRP-1 PH domain (Millennium Protein Sciences Group), 15 nM Streptavidin-XL (CisBio) and 0.375 nM anti-GST antibody (CisBio) at pH 7.00). The plates are then incubated for 1 hour at room temperature with shaking and then read on a BMG PheraStar Plus reader.

PI3K beta = biological target: T2, PI3K beta (Homo sapiens, UniProt P42338); assay: Human PI3K beta enzyme assay (HTRF, procedure as for PI3K alpha); format: biochemical
T2 construct: His (N); host or cells: SF9 insect cells (baculovirus)
T2 sequence (P42338 whole entry): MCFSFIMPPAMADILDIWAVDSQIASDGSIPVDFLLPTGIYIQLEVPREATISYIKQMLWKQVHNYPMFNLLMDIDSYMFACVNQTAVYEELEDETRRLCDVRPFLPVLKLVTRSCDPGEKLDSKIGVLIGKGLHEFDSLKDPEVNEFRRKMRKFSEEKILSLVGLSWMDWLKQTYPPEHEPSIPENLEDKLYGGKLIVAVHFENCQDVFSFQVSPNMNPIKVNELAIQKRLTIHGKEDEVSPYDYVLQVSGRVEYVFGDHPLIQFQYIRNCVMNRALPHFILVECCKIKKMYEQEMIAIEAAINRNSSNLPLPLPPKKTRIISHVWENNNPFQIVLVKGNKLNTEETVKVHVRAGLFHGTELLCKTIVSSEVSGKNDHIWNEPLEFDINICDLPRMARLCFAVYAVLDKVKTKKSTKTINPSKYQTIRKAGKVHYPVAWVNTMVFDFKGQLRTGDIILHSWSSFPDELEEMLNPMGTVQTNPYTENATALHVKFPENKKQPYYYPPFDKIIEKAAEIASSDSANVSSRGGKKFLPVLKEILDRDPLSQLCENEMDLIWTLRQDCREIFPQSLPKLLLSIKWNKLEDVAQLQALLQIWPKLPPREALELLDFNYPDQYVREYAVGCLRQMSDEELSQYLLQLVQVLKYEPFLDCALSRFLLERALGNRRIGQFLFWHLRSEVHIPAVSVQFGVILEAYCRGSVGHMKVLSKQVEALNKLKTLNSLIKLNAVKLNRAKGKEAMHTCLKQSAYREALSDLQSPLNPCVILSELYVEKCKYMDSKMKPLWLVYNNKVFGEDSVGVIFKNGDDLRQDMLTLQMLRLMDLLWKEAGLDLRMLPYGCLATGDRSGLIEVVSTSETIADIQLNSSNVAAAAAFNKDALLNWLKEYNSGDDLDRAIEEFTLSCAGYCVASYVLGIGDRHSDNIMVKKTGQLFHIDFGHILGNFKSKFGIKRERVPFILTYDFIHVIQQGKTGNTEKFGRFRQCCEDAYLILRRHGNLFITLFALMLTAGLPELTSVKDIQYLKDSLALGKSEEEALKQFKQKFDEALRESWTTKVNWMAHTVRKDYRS
T2 sequence (P27986 whole entry partner): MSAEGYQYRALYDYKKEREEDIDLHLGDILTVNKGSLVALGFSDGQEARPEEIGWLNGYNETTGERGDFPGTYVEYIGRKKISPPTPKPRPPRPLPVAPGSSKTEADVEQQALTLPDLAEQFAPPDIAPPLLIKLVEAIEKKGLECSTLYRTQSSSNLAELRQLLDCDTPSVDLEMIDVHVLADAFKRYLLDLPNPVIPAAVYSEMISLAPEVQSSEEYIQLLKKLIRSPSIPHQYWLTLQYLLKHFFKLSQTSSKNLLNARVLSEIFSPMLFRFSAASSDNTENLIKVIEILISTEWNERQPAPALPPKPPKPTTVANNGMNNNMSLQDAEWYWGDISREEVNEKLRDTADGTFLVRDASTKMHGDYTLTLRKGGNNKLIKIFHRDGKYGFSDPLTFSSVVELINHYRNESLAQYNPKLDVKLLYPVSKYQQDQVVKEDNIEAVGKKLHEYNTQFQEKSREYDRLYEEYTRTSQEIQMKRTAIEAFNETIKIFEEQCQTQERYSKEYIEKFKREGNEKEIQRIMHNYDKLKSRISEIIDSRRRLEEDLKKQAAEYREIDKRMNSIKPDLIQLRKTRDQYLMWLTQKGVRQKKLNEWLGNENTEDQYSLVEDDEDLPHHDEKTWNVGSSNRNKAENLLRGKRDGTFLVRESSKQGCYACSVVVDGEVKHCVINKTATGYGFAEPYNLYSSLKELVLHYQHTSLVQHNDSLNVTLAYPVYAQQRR
Source text: as §1, §2
as §3, with “reader. […]” for “reader.”

T1 sequence (P42336 whole entry): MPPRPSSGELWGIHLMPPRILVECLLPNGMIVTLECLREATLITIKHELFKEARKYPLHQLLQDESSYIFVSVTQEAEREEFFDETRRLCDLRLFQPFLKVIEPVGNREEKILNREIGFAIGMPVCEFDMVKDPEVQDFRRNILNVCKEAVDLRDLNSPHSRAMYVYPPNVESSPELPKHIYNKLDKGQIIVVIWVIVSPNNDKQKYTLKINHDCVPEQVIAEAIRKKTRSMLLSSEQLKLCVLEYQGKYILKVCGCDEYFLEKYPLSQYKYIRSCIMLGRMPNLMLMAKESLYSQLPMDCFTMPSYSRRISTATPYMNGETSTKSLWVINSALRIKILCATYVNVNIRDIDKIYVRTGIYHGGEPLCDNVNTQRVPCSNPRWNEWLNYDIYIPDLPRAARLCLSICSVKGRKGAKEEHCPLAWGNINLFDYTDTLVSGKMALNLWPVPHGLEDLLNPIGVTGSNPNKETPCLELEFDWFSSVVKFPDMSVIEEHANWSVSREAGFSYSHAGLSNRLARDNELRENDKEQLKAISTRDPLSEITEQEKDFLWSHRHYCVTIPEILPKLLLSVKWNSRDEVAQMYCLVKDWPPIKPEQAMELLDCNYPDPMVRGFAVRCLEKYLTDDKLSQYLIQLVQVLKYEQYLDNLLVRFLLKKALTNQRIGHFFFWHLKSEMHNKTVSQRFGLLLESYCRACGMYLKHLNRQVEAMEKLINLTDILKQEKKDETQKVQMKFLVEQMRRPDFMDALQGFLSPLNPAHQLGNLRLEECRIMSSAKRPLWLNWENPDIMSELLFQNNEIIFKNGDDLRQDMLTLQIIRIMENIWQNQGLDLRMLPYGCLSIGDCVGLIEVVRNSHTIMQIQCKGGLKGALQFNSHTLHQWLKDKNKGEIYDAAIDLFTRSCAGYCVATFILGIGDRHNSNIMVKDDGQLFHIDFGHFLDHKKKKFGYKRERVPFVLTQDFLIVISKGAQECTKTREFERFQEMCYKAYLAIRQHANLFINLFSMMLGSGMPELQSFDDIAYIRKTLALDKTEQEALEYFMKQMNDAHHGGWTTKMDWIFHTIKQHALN
T1 sequence (P27986 whole entry partner): as the sequence (P27986 whole entry partner) above

Row | IC50 (PI3Kalpha) [µM] | IC50 (PI3K beta) [µM] | Structure (SMILES)
1 | > 1 | 0.1 to 1 | Clc1ccc(Cc2oc(-c3ccncc3)nc2-c2nnc[nH]2)cc1 [Compound 2, 4-[5-(4-chlorobenzyl)-4-(4H-1,2,4-triazol-3-yl)-1,3-oxazol-2-yl]pyridine]
2 | > 1 | 0.1 to 1 | NC(=O)c1nc(-c2ccncc2)oc1Cc1ccc(Cl)cc1 [Compound 1, 5-(4-chlorobenzyl)-2-pyridin-4-yl-1,3-oxazole-4-carboxamide]
